Reference: patent US5672715A, “Herbicidal substituted 3-aryl-pyrazoles” (Monsanto Company, priority 1995, dated 1997)
“And” between values parts separate entries of the source, which are not always exact repeats. Identical values can stand only once.

Tests used:
Assay type in all cases: in vivo
[1] = system: Bedstraw Catchweed; assay: pre-emergence herbicide test; conditions: Galium aparine, pre-emergence, 0.25 lb/A; read-out: % plant inhibition
Method: (§1) Topsoil was placed in an aluminum pan and compacted to a depth of 1.3 to 1.6 cm from the top of the pan. On the top of the soil was placed a predetermined number of seeds of each of several monocotyledonous and dicotyledonous annual plant species and/or vegetative propagules of various perennial plant species. The pan was then level filled with a cover layer of topsoil to which was added a known amount of active ingredient either prior to or after application of the cover layer. The active ingredient was dissolved or suspended in an organic solvent, e.g., acetone, or water as carrier for application to the cover layer. The pans were moved to a greenhouse bench where they were thereafter watered from below as needed to give adequate moisture for germination and growth. In some cases, an initial overhead irrigation of 1/4 inch of water was applied immediately after treatment.
(§2) Approximately 14 days after seeding and treating, the pans were observed and the results (% inhibition) were recorded.
(§3) The tables below summarize the results of the pre-emergence herbicidal activity tests of compounds of this invention tested with warm season plants (Tables 2a-2d) and cool season plants (Tables 3a and 3b). The herbicidal rating shown in these tables is the percent inhibition of each plant species. The plant species usually regarded as weeds are identified in the tables by single letter headings and crop species identified by two letter headings both headings being above the columns in accordance with the following legend: […]

[2] = system: Green Foxtail; assay: pre-emergence herbicide test; conditions: Setaria viridis, pre-emergence; 0.25 lb/A; read-out: % plant inhibition
Method: as §1, §2, §3

[3] = system: Wild Oats; assay: pre-emergence herbicide test; conditions: Avena fatua, pre-emergence, 0.25 lb/A; read-out: % plant inhibition
Method: as §1, §2, §3

[4] = system: Blackgrass; assay: pre-emergence herbicide test; conditions: Alopecurus myosuroides, pre-emergence, 0.25 lb/A; read-out: % plant inhibition
Method: as §1, §2, §3

[5] = system: Corn; assay: pre-emergence herbicide test; conditions: 0.25 lb/A; for inhibition at 280.212 g/ha: Zea mays, pre-emergence, read-out: % plant inhibition
Method: as §1, §2, §3

[6] = system: Cocklebur; assay: pre-emergence herbicide test; conditions: 0.25 lb/A; for inhibition at 280.212 g/ha: Xanthium strumarium, pre-emergence, read-out: % plant inhibition
Method: as §1, §2, §3

[7] = system: Wheat; assay: pre-emergence herbicide test; conditions: Triticum aestivum, pre-emergence, 0.25 lb/A; read-out: % plant inhibition
Method: as §1, §2, §3

[8] = system: Seedling Johnsongrass; assay: pre-emergence herbicide test; conditions: 0.25 lb/A; for inhibition at 280.212 g/ha: Sorghum halepense, pre-emergence, read-out: % plant inhibition
Method: as §1, §2, §3

[9] = system: Birdseye Speedwell; assay: pre-emergence herbicide test; conditions: pre-emergence, 0.25 lb/A; read-out: % plant inhibition
Method: as §1, §2, §3

[10] = system: Downy Brome; assay: pre-emergence herbicide test; conditions: Bromus tectorum, pre-emergence, 0.25 lb/A; read-out: % plant inhibition
Method: as §1, §2, §3

[11] = system: Barnyardgrass; assay: pre-emergence herbicide test; conditions: 0.25 lb/A; for inhibition at 280.212 g/ha: Echinochloa crus-galli, pre-emergence, read-out: % plant inhibition
Method: as §1, §2, §3

[12] = system: Soybean; assay: pre-emergence herbicide test; conditions: Glycine max, pre-emergence, 0.25 lb/A; read-out: % plant inhibition
Method: as §1, §2, §3

[13] = system: Velvetleaf; assay: pre-emergence herbicide test; conditions: 0.25 lb/A; for inhibition at 280.212 g/ha: Abutilon theophrasti, pre-emergence, read-out: % plant inhibition
Method: as §1, §2, §3

[14] = system: Rape; assay: pre-emergence herbicide test; conditions: pre-emergence, 0.25 lb/A; read-out: % plant inhibition
Method: as §1, §2, §3

[15] = system: Morning Glory; assay: pre-emergence herbicide test; conditions: 0.25 lb/A; for inhibition at 280.212 g/ha: Ipomoea, pre-emergence, read-out: % plant inhibition
Method: as §1, §2, §3

[16] = system: Common Chickweed; assay: pre-emergence herbicide test; conditions: pre-emergence, 0.25 lb/A; read-out: % plant inhibition
Method: as §1, §2, §3

[17] = system: Giant Foxtail; assay: pre-emergence herbicide test; conditions: 0.25 lb/A; for inhibition at 280.212 g/ha: Setaria faberi, pre-emergence, read-out: % plant inhibition
Method: as §1, §2, §3

[18] = system: Bedstraw Catchweed; assay: post-emergence herbicide test; conditions: Galium aparine, post-emergence, 0.25 lb/A; read-out: % plant inhibition
From the text: (§4) Topsoil was placed in aluminum pans having holes in the bottom and compacted to a depth of 1.3 to 1.6 cm from the top of the pan. A predetermined number of seeds of each of several dicotyledonous and monocotyledonous annual plant species and/or vegetative propagules for the perennial plant species were placed on the soil and pressed into the soil surface. The seeds and/or vegetative propagules were covered with soil and leveled. The pans were then placed on a bench in the greenhouse and watered either from overheard irrigation or by subirrigation as needed. After the plants reach the desired age (two to three weeks), each pan, is removed individually to a spraying chamber and sprayed by means of an atomizer, operating at a spray pressure of 170.3 kPa […] at the application rates noted. In the spray solution was an amount of an emulsifying agent mixture to give a spray solution or suspension which contains about 0.4% by volume of the emulsifier. The spray solution or suspension contained a sufficient amount of the candidate chemical in order to give application rates of the active ingredient corresponding to those shown in Tables 4 and 5, while applying a total amount of solution or suspension equivalent to 1870 L/Ha (200 gallons/acre). […] The post-emergent herbicidal activity shown in these tables is the percent inhibition of each plant species. Testing with warm season and cool season plants is shown in tables 4a-4d and […], respectively.

[19] = system: Green Foxtail; assay: post-emergence herbicide test; conditions: Setaria viridis, post-emergence, 0.25 lb/A; read-out: % plant inhibition
From the text: as §4

[20] = system: Wild Oats; assay: post-emergence herbicide test; conditions: Avena fatua, post-emergence, 0.25 lb/A; read-out: % plant inhibition
From the text: as §4

[21] = system: Blackgrass; assay: post-emergence herbicide test; conditions: Alopecurus myosuroides, post-emergence, 0.25 lb/A; read-out: % plant inhibition
From the text: as §4

[22] = system: Corn; assay: post-emergence herbicide test; conditions: Zea mays, post-emergence, 0.25 lb/A; read-out: % plant inhibition
From the text: as §4

[23] = system: Cocklebur; assay: post-emergence herbicide test; conditions: Xanthium strumarium, post-emergence, 0.25 lb/A; read-out: % plant inhibition
From the text: as §4

[24] = system: Wheat; assay: post-emergence herbicide test; conditions: Triticum aestivum, post-emergence, 0.25 lb/A; read-out: % plant inhibition
From the text: as §4

[25] = system: Seedling Johnsongrass; assay: post-emergence herbicide test; conditions: Sorghum halepense, post-emergence, 0.25 lb/A; read-out: % plant inhibition
From the text: as §4

[26] = system: Birdseye Speedwell; assay: post-emergence herbicide test; conditions: post-emergence, 0.25 lb/A; read-out: % plant inhibition
From the text: as §4

[27] = system: Downy Brome; assay: post-emergence herbicide test; conditions: Bromus tectorum, post-emergence, 0.25 lb/A; read-out: % plant inhibition
From the text: as §4

[28] = system: Barnyardgrass; assay: post-emergence herbicide test; conditions: Echinochloa crus-galli, post-emergence, 0.25 lb/A; read-out: % plant inhibition
From the text: as §4

[29] = system: Soybean; assay: post-emergence herbicide test; conditions: Glycine max, post-emergence, 0.25 lb/A; read-out: % plant inhibition
From the text: as §4

[30] = system: Velvetleaf; assay: post-emergence herbicide test; conditions: Abutilon theophrasti, post-emergence, 0.25 lb/A; read-out: % plant inhibition
From the text: as §4

[31] = system: Rape; assay: post-emergence herbicide test; conditions: post-emergence, 0.25 lb/A; read-out: % plant inhibition
From the text: as §4

[32] = system: Morning Glory; assay: post-emergence herbicide test; conditions: Ipomoea, post-emergence, 0.25 lb/A; read-out: % plant inhibition
From the text: as §4

[33] = system: Common Chickweed; assay: post-emergence herbicide test; conditions: post-emergence, 0.25 lb/A; read-out: % plant inhibition
From the text: as §4

[34] = system: Giant Foxtail; assay: post-emergence herbicide test; conditions: Setaria faberi, post-emergence, 0.25 lb/A; read-out: % plant inhibition
From the text: as §4

Row | Structure (SMILES) | inhibition at 280.212 g/ha [1] | inhibition at 280.212 g/ha [2] | inhibition at 280.212 g/ha [3] | inhibition at 280.212 g/ha [4] | inhibition at 280.212 g/ha [6] | inhibition at 280.212 g/ha [7] | inhibition at 280.212 g/ha [8] | inhibition at 280.212 g/ha [9] | inhibition at 280.212 g/ha [10] | inhibition at 280.212 g/ha [11] | inhibition at 280.212 g/ha [13] | inhibition at 280.212 g/ha [14] | inhibition at 280.212 g/ha [16] | inhibition at 280.212 g/ha [17] | inhibition at 280.212 g/ha [18] | inhibition at 280.212 g/ha [19] | inhibition at 280.212 g/ha [20] | inhibition at 280.212 g/ha [21] | inhibition at 280.212 g/ha [22] | inhibition at 280.212 g/ha [23] | also measured
1 | CCCCCCCCCCCCOC(=O)c1cc(-c2nn(C)c(C(F)(F)F)c2C)c(F)cc1Cl [Compound 49] | 5% | 60% | 5% | 5% | 0% | 0% | 45% | 55% | 5% | 75% | 0% | 0% | 5% | 10% | 35% | 60% | 20% | 20% | 5% | 50% | inhibition at 280.212 g/ha [5]: 0%; inhibition at 280.212 g/ha [12]: 0%; inhibition at 280.212 g/ha [15]: 40%; inhibition at 280.212 g/ha [24]: 10%; inhibition at 280.212 g/ha [25]: 5%; inhibition at 280.212 g/ha [26]: 80%; inhibition at 280.212 g/ha [27]: 20%; inhibition at 280.212 g/ha [28]: 0%; inhibition at 280.212 g/ha [29]: 5%; inhibition at 280.212 g/ha [30]: 10%; inhibition at 280.212 g/ha [31]: 20%; inhibition at 280.212 g/ha [32]: 5%; inhibition at 280.212 g/ha [33]: 10%; inhibition at 280.212 g/ha [34]: 0%
2 | CCCOC(=O)c1cc(-c2nn(C)c(C(F)(F)F)c2C)c(F)cc1Cl [Compound 19] | 80% | 100% | 75% | 95% | 60% | 0% | 95% | 100% | 40% | 98% | 90% | 50% | 100% | 99% | 60% | 20% | 20% | 20% | 20% | 75% | % plant inhibition [5]: 28%; inhibition at 280.212 g/ha [5]: 25%; % plant inhibition [6]: 70%; % plant inhibition [8]: 85%; % plant inhibition [11]: 95%; % plant inhibition [13]: 98%; % plant inhibition [17]: 100%; inhibition at 280.212 g/ha [24]: 10%; inhibition at 280.212 g/ha [25]: 50%; inhibition at 280.212 g/ha [26]: 55%; inhibition at 280.212 g/ha [27]: 25%; inhibition at 280.212 g/ha [28]: 65%; inhibition at 280.212 g/ha [29]: 50%; inhibition at 280.212 g/ha [30]: 90%; inhibition at 280.212 g/ha [31]: 15%; inhibition at 280.212 g/ha [32]: 35%; inhibition at 280.212 g/ha [33]: 50%; inhibition at 280.212 g/ha [34]: 65%
3 | CCOC(=O)c1cc(-c2nn(C)c(C(F)(F)F)c2C)c(F)cc1Cl [Compound 26, 2-chloro-5-[1,4-dimethyl-5-(trifluoromethyl)-1H-pyrazol-3-yl]-4-fluorobenzoic acid ethyl ester] | 50% | 100% | 65% | 95% | 85% | 0% | 100% | 100% | 55% | 100% | 100% | 40% | 100% | 99% | 60% | 60% | 35% | 35% | 25% | 85% | % plant inhibition [6]: 93% and 92%; % plant inhibition [15]: 97% and 98%; inhibition at 280.212 g/ha [15]: 90%; % plant inhibition [17]: 100%; inhibition at 280.212 g/ha [24]: 17%; inhibition at 280.212 g/ha [25]: 50%; inhibition at 280.212 g/ha [26]: 85%; inhibition at 280.212 g/ha [27]: 45%; inhibition at 280.212 g/ha [28]: 95%; inhibition at 280.212 g/ha [29]: 75%; inhibition at 280.212 g/ha [30]: 99%; inhibition at 280.212 g/ha [31]: 60%; inhibition at 280.212 g/ha [32]: 50%; inhibition at 280.212 g/ha [33]: 85%; inhibition at 280.212 g/ha [34]: 45%
